Laboratory results: patent US12492173B2, “Herbicidal substituted N-tetrazolyl aryl carboxamides” (Bayer Aktiengesellschaft, priority 2019, dated 2025)

Tested on: Matricaria inodora
Assay: Pre-emergence herbicidal action, MATIN
Type: in vivo
Conditions: dosage 320 g/ha, scored visually after 3 weeks vs untreated controls (100% = plants have died)
Method in brief: (§1)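 Pre-emergence soil spray over sandy loam-covered seeds; greenhouse 3 weeks; % visual damage (0% = control, 100% = dead).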

SMILES	herbicidal activity MATIN [%]
CCn1nnnc1NC(=O)c1ccc(C(F)F)c(CSC)c1SC [Example 2-170]	100
CCCn1nnnc1NC(=O)c1ccc(C(F)F)c(CSCC)c1Cl [Example 3-323]	100
CSCc1c(C(F)(F)F)ccc(C(=O)Nc2nnnn2C)c1C [Example 1-83]	100
CCn1nnnc1NC(=O)c1ccc(C(F)(F)F)c(CSCC(F)(F)F)c1Cl [Example 2-311]	100
C=CCSCc1c(C(F)(F)F)ccc(C(=O)Nc2nnnn2CCC)c1Cl [Example 3-308]	100
CCn1nnnc1NC(=O)c1ccc(C(F)(F)F)c(CSCCOC)c1Cl [Example 2-305]	100
CCn1nnnc1NC(=O)c1ccc(C(F)F)c(CSC)c1Cl [Example 2-320]	100
CCn1nnnc1NC(=O)c1ccc(I)c(C[S+](C)[O-])c1Cl (stereo not drawn) [Example 2-363]	100
CCCn1nnnc1NC(=O)c1ccc(C(F)(F)F)c(C[S+](C)[O-])c1SC (stereo not drawn) [Example 3-162]	100
CCCn1nnnc1NC(=O)c1ccc(C(F)(F)F)c(CS(C)(=O)=O)c1SC [Example 3-163]	100
CSCc1c(C(F)F)ccc(C(=O)Nc2nnnn2C)c1Cl [Example 1-320]	100

Tested on: Veronica persica
Assay: Pre-emergence herbicidal action, VERPE
Type: in vivo
Conditions: dosage 320 g/ha, scored visually after 3 weeks vs untreated controls (100% = plants have died)
Method in brief: as §1

SMILES	herbicidal activity VERPE [%]
CCn1nnnc1NC(=O)c1ccc(C(F)F)c(CSC)c1SC [Example 2-170]	100
CCCn1nnnc1NC(=O)c1ccc(C(F)F)c(CSCC)c1Cl [Example 3-323]	100
CSCc1c(C(F)(F)F)ccc(C(=O)Nc2nnnn2C)c1C [Example 1-83]	100
CCn1nnnc1NC(=O)c1ccc(C(F)(F)F)c(CSCC(F)(F)F)c1Cl [Example 2-311]	90
C=CCSCc1c(C(F)(F)F)ccc(C(=O)Nc2nnnn2CCC)c1Cl [Example 3-308]	100
CCn1nnnc1NC(=O)c1ccc(C(F)(F)F)c(CSCCOC)c1Cl [Example 2-305]	100
CCn1nnnc1NC(=O)c1ccc(C(F)F)c(CSC)c1Cl [Example 2-320]	100
CCn1nnnc1NC(=O)c1ccc(I)c(C[S+](C)[O-])c1Cl (stereo not drawn) [Example 2-363]	100
CCCn1nnnc1NC(=O)c1ccc(C(F)(F)F)c(C[S+](C)[O-])c1SC (stereo not drawn) [Example 3-162]	100
CCCn1nnnc1NC(=O)c1ccc(C(F)(F)F)c(CS(C)(=O)=O)c1SC [Example 3-163]	100
CSCc1c(C(F)F)ccc(C(=O)Nc2nnnn2C)c1Cl [Example 1-320]	100

Tested on: Abutilon theophrasti
Assay: Post-emergence herbicidal action, ABUTH
Type: in vivo
Parameters: key: % herbicidal action vs untreated; 100 = plants died, 0 = like control
Conditions: Dosage 80 g/ha
Method in brief: (§2)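 WP or EC formulations, diluted in water at 600 to 800 l/ha with 0.2% wetting agent, are sprayed onto green parts of one-leaf-stage plants grown in sandy loam. Visual assessment of percent damage relative to untreated controls follows after approximately 3 weeks in the greenhouse.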

SMILES	herbicidal action ABUTH
CCn1nnnc1NC(=O)c1ccc(C(F)F)c(CSC)c1SC [Example 2-170]	100
CCCn1nnnc1NC(=O)c1ccc(C(F)F)c(CSCC)c1Cl [Example 3-323]	100
CCn1nnnc1NC(=O)c1ccc(C(F)(F)F)c(CSCC(F)(F)F)c1Cl [Example 2-311]	90
C=CCSCc1c(C(F)(F)F)ccc(C(=O)Nc2nnnn2CCC)c1Cl [Example 3-308]	100
CCn1nnnc1NC(=O)c1ccc(C(F)F)c(CSC)c1Cl [Example 2-320]	100
CCn1nnnc1NC(=O)c1ccc(I)c(C[S+](C)[O-])c1Cl (stereo not drawn) [Example 2-363]	100
CCCn1nnnc1NC(=O)c1ccc(C(F)(F)F)c(CS(C)(=O)=O)c1SC [Example 3-163]	100
CSCc1c(C(F)F)ccc(C(=O)Nc2nnnn2C)c1Cl [Example 1-320]	100

Same assay, conditions: comparative experiment, post-emergence, 5 g of a.i./ha

SMILES	Herbicidal action against ABUTH
CSCc1c(C(F)F)ccc(C(=O)Nc2nnnn2C)c1Cl [Example 1-320]	100

Same assay, conditions: post-emergence, dosage 80 g/ha

SMILES	herbicidal action ABUTH [%]
CSCc1c(C(F)(F)F)ccc(C(=O)Nc2nnnn2C)c1C [Example 1-83]	90
CCn1nnnc1NC(=O)c1ccc(C(F)(F)F)c(CSCCOC)c1Cl [Example 2-305]	100
CCCn1nnnc1NC(=O)c1ccc(C(F)(F)F)c(C[S+](C)[O-])c1SC (stereo not drawn) [Example 3-162]	100

Tested on: Alopecurus myosuroides
Assay: Post-emergence herbicidal action, ALOMY
Type: in vivo
Parameters: key: % herbicidal action vs untreated; 100 = plants died, 0 = like control
Conditions: Dosage 80 g/ha
Method in brief: as §2

SMILES	herbicidal action ALOMY
CCn1nnnc1NC(=O)c1ccc(C(F)F)c(CSC)c1SC [Example 2-170]	80
CCCn1nnnc1NC(=O)c1ccc(C(F)F)c(CSCC)c1Cl [Example 3-323]	80
CCn1nnnc1NC(=O)c1ccc(C(F)(F)F)c(CSCC(F)(F)F)c1Cl [Example 2-311]	90
C=CCSCc1c(C(F)(F)F)ccc(C(=O)Nc2nnnn2CCC)c1Cl [Example 3-308]	100
CCn1nnnc1NC(=O)c1ccc(C(F)F)c(CSC)c1Cl [Example 2-320]	100
CCn1nnnc1NC(=O)c1ccc(I)c(C[S+](C)[O-])c1Cl (stereo not drawn) [Example 2-363]	90
CCCn1nnnc1NC(=O)c1ccc(C(F)(F)F)c(CS(C)(=O)=O)c1SC [Example 3-163]	90
CSCc1c(C(F)F)ccc(C(=O)Nc2nnnn2C)c1Cl [Example 1-320]	100

Same assay, conditions: post-emergence, dosage 80 g/ha

SMILES	herbicidal action ALOMY [%]
CSCc1c(C(F)(F)F)ccc(C(=O)Nc2nnnn2C)c1C [Example 1-83]	80
CCn1nnnc1NC(=O)c1ccc(C(F)(F)F)c(CSCCOC)c1Cl [Example 2-305]	100
CCCn1nnnc1NC(=O)c1ccc(C(F)(F)F)c(C[S+](C)[O-])c1SC (stereo not drawn) [Example 3-162]	90

Tested on: Echinochloa crus-galli
Assay: Post-emergence herbicidal action, ECHCG
Type: in vivo
Parameters: key: % herbicidal action vs untreated; 100 = plants died, 0 = like control
Conditions: Dosage 80 g/ha
Method in brief: as §2

SMILES	herbicidal action ECHCG
CCn1nnnc1NC(=O)c1ccc(C(F)F)c(CSC)c1SC [Example 2-170]	100
CCCn1nnnc1NC(=O)c1ccc(C(F)F)c(CSCC)c1Cl [Example 3-323]	100
CCn1nnnc1NC(=O)c1ccc(C(F)(F)F)c(CSCC(F)(F)F)c1Cl [Example 2-311]	100
C=CCSCc1c(C(F)(F)F)ccc(C(=O)Nc2nnnn2CCC)c1Cl [Example 3-308]	100
CCn1nnnc1NC(=O)c1ccc(C(F)F)c(CSC)c1Cl [Example 2-320]	100
CCn1nnnc1NC(=O)c1ccc(I)c(C[S+](C)[O-])c1Cl (stereo not drawn) [Example 2-363]	100
CCCn1nnnc1NC(=O)c1ccc(C(F)(F)F)c(CS(C)(=O)=O)c1SC [Example 3-163]	90
CSCc1c(C(F)F)ccc(C(=O)Nc2nnnn2C)c1Cl [Example 1-320]	100

Same assay, conditions: comparative experiment, post-emergence, 5 g of a.i./ha

SMILES	Herbicidal action against ECHCG
CSCc1c(C(F)F)ccc(C(=O)Nc2nnnn2C)c1Cl [Example 1-320]	100

Same assay, conditions: post-emergence, dosage 80 g/ha

SMILES	herbicidal action ECHCG [%]
CSCc1c(C(F)(F)F)ccc(C(=O)Nc2nnnn2C)c1C [Example 1-83]	90
CCn1nnnc1NC(=O)c1ccc(C(F)(F)F)c(CSCCOC)c1Cl [Example 2-305]	100
CCCn1nnnc1NC(=O)c1ccc(C(F)(F)F)c(C[S+](C)[O-])c1SC (stereo not drawn) [Example 3-162]	100

Tested on: Setaria viridis
Assay: Post-emergence herbicidal action, SETVI
Type: in vivo
Parameters: key: % herbicidal action vs untreated; 100 = plants died, 0 = like control
Conditions: Dosage 80 g/ha
Method in brief: as §2

SMILES	herbicidal action SETVI
CCn1nnnc1NC(=O)c1ccc(C(F)F)c(CSC)c1SC [Example 2-170]	90
CCCn1nnnc1NC(=O)c1ccc(C(F)F)c(CSCC)c1Cl [Example 3-323]	100
CCn1nnnc1NC(=O)c1ccc(C(F)(F)F)c(CSCC(F)(F)F)c1Cl [Example 2-311]	100
C=CCSCc1c(C(F)(F)F)ccc(C(=O)Nc2nnnn2CCC)c1Cl [Example 3-308]	100
CCn1nnnc1NC(=O)c1ccc(C(F)F)c(CSC)c1Cl [Example 2-320]	100
CCn1nnnc1NC(=O)c1ccc(I)c(C[S+](C)[O-])c1Cl (stereo not drawn) [Example 2-363]	90
CCCn1nnnc1NC(=O)c1ccc(C(F)(F)F)c(CS(C)(=O)=O)c1SC [Example 3-163]	90
CSCc1c(C(F)F)ccc(C(=O)Nc2nnnn2C)c1Cl [Example 1-320]	100

Same assay, conditions: comparative experiment, post-emergence, 5 g of a.i./ha

SMILES	Herbicidal action against SETVI
CSCc1c(C(F)F)ccc(C(=O)Nc2nnnn2C)c1Cl [Example 1-320]	100

Same assay, conditions: post-emergence, dosage 80 g/ha

SMILES	herbicidal action SETVI [%]
CSCc1c(C(F)(F)F)ccc(C(=O)Nc2nnnn2C)c1C [Example 1-83]	100
CCn1nnnc1NC(=O)c1ccc(C(F)(F)F)c(CSCCOC)c1Cl [Example 2-305]	100
CCCn1nnnc1NC(=O)c1ccc(C(F)(F)F)c(C[S+](C)[O-])c1SC (stereo not drawn) [Example 3-162]	100
